Results: patent US20230129359A1, “MUSCARINIC RECEPTOR 4 ANTAGONISTS AND METHODS OF USE” (Neurocrine Biosciences, Inc., priority 2020, published 2023)

These compounds were tested against T1, human M4 receptor (Homo sapiens, UniProt P08173) (assay: Radioligand ([3H]N-methylscopolamine) binding assay, membranes from CHO cells expressing human M4 receptor). Conditions: not given.
T1 construct: expressed in transfected cells; host or cells: CHO cells
T1 sequence (P08173 1-479): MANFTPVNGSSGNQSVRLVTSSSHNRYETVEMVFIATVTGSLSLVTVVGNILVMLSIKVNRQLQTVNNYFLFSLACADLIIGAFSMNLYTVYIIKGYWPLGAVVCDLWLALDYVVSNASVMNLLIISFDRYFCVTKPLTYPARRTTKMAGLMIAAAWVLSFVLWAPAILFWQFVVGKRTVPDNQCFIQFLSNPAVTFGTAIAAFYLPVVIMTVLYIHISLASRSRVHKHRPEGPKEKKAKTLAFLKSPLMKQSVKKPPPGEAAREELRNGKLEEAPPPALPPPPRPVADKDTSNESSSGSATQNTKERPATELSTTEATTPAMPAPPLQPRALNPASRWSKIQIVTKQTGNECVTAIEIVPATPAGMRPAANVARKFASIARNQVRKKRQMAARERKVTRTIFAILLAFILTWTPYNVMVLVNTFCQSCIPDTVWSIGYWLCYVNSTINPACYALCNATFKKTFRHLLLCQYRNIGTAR
Protocol: Binding affinity (Ki) for the compounds was measured by inhibition of radioligand binding to membranes from CHO cells expressing human M4 receptor. Membranes were prepared by nitrogen cavitation and differential centrifugation as previously described (Hoare et al., Mol. Pharmacol. 2003 March; 63(3): 751-65). The radioligand employed was tritiated N-methylscopolamine, used at a concentration of 1.5 nM. A dose-response of twelve concentrations of compound was used, ranging from […]. The assay buffer was 50 mM HEPES, 100 mM NaCl, 5 mM MgCl2, 1 mM ethylenediaminetetraacetic acid, pH-adjusted to pH 7.4. Membranes, radioligand and compound were incubated together for 90 minutes at 37° C., in a total volume of 150 μL in a 96-well plate. Receptor-bound radioligand was then collected by harvesting the assay over glass fiber filters pretreated with polyethylenimine to trap the cell membranes, using rapid vacuum filtration. Harvesting and radioactivity counting was conducted as previously described (see, e.g., Hoare et al., Mol. Pharmacol. 2003 63(3):751-65); Erratum at Mol. Pharmacol. 2005 July; 68(1): 260).

SMILES	Ki [nM]
O=C(OC1CC2(C1)CN(Cc1ccccc1)C2)N1C2COCC1CN(c1cnc(C(F)(F)F)cn1)C2 [Compound 168, 2-benzyl-2-azaspiro[3.3]heptan-6-yl 7-[5-(trifluoromethyl)pyrazin-2-yl]-3-oxa-7,9-diazabicyclo[3.3.1]nonane-9-carboxylate]	100 to 1000

Same assay, conditions: Ki against human M4 receptor; membranes from CHO cells; tritiated N-methylscopolamine 1.5 nM; read-out: K

Ki [nM]	SMILES
100 to 1000	C[C@@H]1CN(c2cnc(C(F)(F)F)cn2)C[C@@H](C)N1C(=O)OCC1CC2(C1)CN(Cc1ccccc1)C2 [Compound 143, {2-benzyl-2-azaspiro[3.3]heptan-6-yl}methyl (2R,6R)-2,6-dimethyl-4-[5-(trifluoromethyl)pyrazin-2-yl]piperazine-1-carboxylate]
10 to 100	C[C@@H]1CN(c2ncc(C(F)(F)F)cn2)CCN1C(=O)NC1CC2(C1)CN(Cc1ccccc1)C2 [Compound 7, (2R)-N-{2-benzyl-2-azaspiro[3.3]heptan-6-yl}-2-methyl-4-[5-(trifluoromethyl)pyrimidin-2-yl]piperazine-1-carboxamide]
< 10	C[C@@H]1CN(c2nc3ccc(C(F)(F)F)cc3s2)[C@@H](C)CN1C(=O)OC1CC2(C1)CN(Cc1ccccc1)C2 [Compound 372, 2-benzyl-2-azaspiro[3.3]heptan-6-yl (2R,5S)-2,5-dimethyl-4-[6-(trifluoromethyl)-1,3-benzothiazol-2-yl]piperazine-1-carboxylate]
< 10	C[C@@H]1CN(c2ncc(OC(F)(F)F)cn2)C[C@H](C)N1C(=O)OC1CC2(C1)CN(Cc1ccccc1)C2 [Compound 498, 2-benzyl-2-azaspiro[3.3]heptan-6-yl (2R,6S)-2,6-dimethyl-4-[5-(trifluoromethoxy)pyrimidin-2-yl]piperazine-1-carboxylate]
10 to 100	C[C@@H]1CN(c2cnc3ccccc3n2)[C@@H](C)CN1C(=O)OC1CC2(C1)CN(Cc1ccc(F)cc1)C2 [Compound 394, 2-[(4-fluorophenyl)methyl]-2-azaspiro[3.3]heptan-6-yl (2R,5S)-2,5-dimethyl-4-(quinoxalin-2-yl)piperazine-1-carboxylate]
< 10	C[C@@H]1CN(c2ncc(F)cn2)C[C@H](C)N1C(=O)OC1CC2(C1)CN(Cc1ccccc1)C2 [Compound 157, 2-benzyl-2-azaspiro[3.3]heptan-6-yl (2R,6S)-4-(5-fluoropyrimidin-2-yl)-2,6-dimethylpiperazine-1-carboxylate]
10 to 100	C[C@@H]1CN(c2ncc(C(F)(F)F)cn2)C[C@H](C)N1C(=O)OC1CC2(C1)CN(Cc1ccc(F)cc1)C2 [Compound 455, 2-[(4-fluorophenyl)methyl]-2-azaspiro[3.3]heptan-6-yl (2R,6S)-2,6-dimethyl-4-[5-(trifluoromethyl)pyrimidin-2-yl]piperazine-1-carboxylate]
100 to 1000	C[C@@H]1CN(c2ncc(F)cn2)C[C@H](C)N1C(=O)NC1CC2(C1)CN(Cc1ccccc1)C2 [Compound 250, (2R,6S)-N-{2-benzyl-2-azaspiro[3.3]heptan-6-yl}-4-(5-fluoropyrimidin-2-yl)-2,6-dimethylpiperazine-1-carboxamide]
< 10	C[C@@H]1CN(c2cnc(OC(F)(F)F)cn2)[C@@H](C)CN1C(=O)OC1CC2(C1)CN(Cc1ccccc1)C2 [Compound 204, 2-benzyl-2-azaspiro[3.3]heptan-6-yl (2R,5S)-2,5-dimethyl-4-[5-(tifluoromethoxy)pyrazin-2-yl]piperazine-1-carboxylate]
100 to 1000	C[C@@H]1CN(c2ncc(C#N)cn2)C[C@H](C)N1C(=O)NC1CC2(C1)CN(Cc1ccc(F)cc1)C2 [Compound 330, (2R,6S)-4-(5-cyanopyrimidin-2-yl)-N-{2-[(4-fluorophenyl)methyl]-2-azaspiro[3.3]heptan-6-yl}-2,6-dimethylpiperazine-1-carboxamide]
< 10	C[C@@H]1CN(c2ncc3ccccc3n2)C[C@H](C)N1C(=O)OC1CC2(C1)CN(Cc1ccc(F)cc1)C2 [Compound 392, 2-[(4-fluorophenyl)methyl]-2-azaspiro[3.3]heptan-6-yl (2R,6S)-2,6-dimethyl-4-(quinazolin-2-yl)piperazine-1-carboxylate]
10 to 100	C[C@@H]1CN(c2nc3cc(F)ccc3o2)[C@@H](C)CN1C(=O)OC1CC2(C1)CN(Cc1ccccc1)C2 [Compound 443, 2-benzyl-2-azaspiro[3.3]heptan-6-yl (2R,5S)-4-(5-fluoro-1,3-benzoxazol-2-yl)-2,5-dimethylpiperazine-1-carboxylate]
100 to 1000	C[C@@H]1CN(c2cncc(C(F)(F)F)n2)[C@@H](C)CN1C(=O)OC1CC2(C1)CN(Cc1ccccc1)C2 [Compound 194, 2-benzyl-2-azaspiro[3.3]heptan-6-yl (2R,5S)-2,5-dimethyl-4-[6-(trifluoromethyl)pyrazin-2-yl]piperazine-1-carboxylate]
10 to 100	C[C@@H]1CN(c2cnc3ccccc3n2)CCN1C(=O)NC1CC2(C1)CN(Cc1ccccc1)C2 [Compound 224, (2R)-N-{2-benzyl-2-azaspiro[3.3]heptan-6-yl}-2-methyl-4-(quinoxalin-2-yl)piperazine-1-carboxamide]
10 to 100	C[C@@H]1CN(c2nc3ccc(F)cc3o2)[C@@H](C)CN1C(=O)OC1CC2(C1)CN(Cc1ccccc1)C2 [Compound 446, 2-benzyl-2-azaspiro[3.3]heptan-6-yl (2R,5S)-4-(6-fluoro-1,3-benzoxazol-2-yl)-2,5-dimethylpiperazine-1-carboxylate]
10 to 100	C[C@@H]1CN(c2ncc(C(F)(F)F)cn2)C[C@H](C)N1C(=O)NCC1CC2(C1)CN(Cc1ccccc1)C2 [Compound 97, (2R,6S)-N-({2-benzyl-2-azaspiro[3.3]heptna-6-yl}methyl)-2,6-dimethyl-4-[5-(trifluoromethyl)pyrimidin-2-yl]piperazine-1-carboxamide]
100 to 1000	C[C@@H]1CN(c2ncc(C#N)cn2)C[C@@H](C)N1C(=O)OC1CC2(C1)CN(Cc1ccccc1)C2 [Compound 159, 2-benzyl-2-azaspiro[3.3]heptan-6-yl (2R,6R)-4-(5-cyanopyrimidin-2-yl)-2,6-dimethylpiperazine-1-carboxylate]
< 10	COc1ccc2nc(N3C[C@@H](C)N(C(=O)NC4CC5(C4)CN(Cc4ccccc4)C5)[C@H](C)C3)sc2c1 [Compound 242, (2R,6R)-N-{2-benzyl-2-azaspiro[3.3]heptan-6-yl}-4-(6-methoxy-1,3-benzothiazol-2-yl)-2,6-dimethylpiperazine-1-carboxamide]
< 10	C[C@@H]1CN(c2ncc(OCC3CCC3)cn2)C[C@H](C)N1C(=O)OC1CC2(C1)CN(Cc1ccccc1)C2 [Compound 530, 2-benzyl-2-azaspiro[3.3]heptan-6-yl (2R,6S)-4-[5-(cyclobutylmethoxy)pyrimidin-2-yl]-2,6-dimethylpiperazine-1-carboxylate]
< 10	C[C@@H]1CN(c2ncc(OC(F)F)cn2)C[C@H](C)N1C(=O)OC1CC2(C1)CN(Cc1ccccc1)C2 [Compound 462, 2-benzyl-2-azaspiro[3.3]heptan-6-yl (2R,6S)-4-[5-(difluoromethoxy)pyrimidin-2-yl]-2,6-dimethylpiperazine-1-carboxylate]

SMILES	Ki [nM]
O=C(OC1CC2(C1)CN(Cc1ccccc1)C2)N1C2CC1CN(c1cnc(C(F)(F)F)cn1)C2 [Compound 110, 2-benzyl-2-azaspiro[3.3]heptan-6-yl 3-[5-(trifluoromethyl)pyrazin-2-yl]-3,6-diazabicyclo[3.1.1]heptane-6-carboxylate]	100 to 1000
